Reference: patent publication US4342762A, “Basic ethers and pharmaceutical compositions containing the same” (Egyt Gyogyszervegyeszeti Gyar, priority 1979, dated 1982)

Columns and labels:
[1] = acute oral toxicity, graphic method of Litchfield-Wilcoxon, 4 days observation; conditions: mouse, in vivo
Description: The analgesic effect of the new compounds according to the invention was determined by the method of Wirth et al. (Wirth, W., Gosswald, R., Horlein. K., Risse, Kl. H., Kreiskott, H.: Arch. Int. Pharmacodyn. 115, 1; (1958)). 0.4 ml of 0.5% acetic acid was administered i.p. to white mice, and the characteristic "writhing" reactions were counted after 5 minutes. […] The results are given in Table I. The toxicity data determined on white mice of both sexes weighing 18-24 g belonging to the strain CFLP are also given. Administration was effected with an oral dose of 20 ml/kg. After treatment the animals were kept under observation for 4 days. The toxicity data (LD50 mg/kg) were determined by the graphic method of Litchfield-Wilcoxon [Litchfield, J.T., Wilcoxon, E. W., J Pharmacol. Exp. Therap. 96, 99; (1949)].

[2] = system: white mice; experiment: analgesic effect, inhibition of acetic acid "writhing" reactions (Wirth et al.); format: in vivo; conditions: for ED50: Mus musculus, read-out: Analgesic effect ED50; for Analgesic effect Therap.index: therapeutic index
Description: The analgesic effect of the new compounds according to the invention was determined by the method of Wirth et al. (Wirth, W., Gosswald, R., Horlein. K., Risse, Kl. H., Kreiskott, H.: Arch. Int. Pharmacodyn. 115, 1; (1958)). 0.4 ml of 0.5% acetic acid was administered i.p. to white mice, and the characteristic "writhing" reactions were counted after 5 minutes. The compounds to be tested had been orally administered an hour before the administration of the acetic acid. The activity is expressed as a percentage of the inhibition referred to the data observed on the control group. The results are given in Table I. The toxicity data determined on white mice of both sexes weighing 18-24 g belonging to the strain CFLP are also given. Administration was effected with an oral dose of 20 ml/kg. After treatment the animals were kept under observation for 4 days. The toxicity data (LD50 mg/kg) were determined by the graphic method of Litchfield-Wilcoxon [Litchfield, J.T., Wilcoxon, E. W., J Pharmacol. Exp. Therap. 96, 99; (1949)].

[3] = system: white mice; experiment: inhibition of motility, Dews apparatus (Borsy); format: in vivo; conditions: for ED50: Mus musculus, oral pretreatment 30 minutes, observation 30 minutes; for Inhibition of motility Th.I.: therapeutic index
Description: (§1) The effect on the inhibition of the oriental activity (inhibition of the motility) was investigated on white mice in a Dews apparatus applied with 8 canals by the method of Borsy [Borsy, J., Csanyi, E., Lazar, I., Arc. Int. Pharmacodyn. 124, 1-2 (1960)]. After an oral pretreatment of 30 minutes the number of light-interruptions due to the movements of groups consisting of 3-3 mice was registered. The observation lasted for 30 minutes. The effect of the compounds exerted on the duration of hexobarbital-narcosis was tested by the method of Kaergaard [Kaergaard, N. C., Magnussen, M. P., Kampmann, E., Frey, H. H., Arc. Int. Pharmacodyn. 2, 170; (1967)]. Groups of animals consisting of 6-6 mice were treated.

[4] = system: white mice; experiment: inhibition of pentetrazole convulsion (modified Banziger and Hane); format: in vivo; conditions: for ED50: Mus musculus, oral; for Inhibition of pentetrazole convulsion Th. I.: therapeutic index
Description: (§2) The antiepileptic effect was investigated on white mice, after oral administration. The inhibition of maximal electroshock (MES) was determined by the method of Swinyard et al. [Swinyard et al. J. Pharmacol. Exp. Ther. 106, 319-330 (1952)]. White mice weighing 20-25 g were subjected to electric shock through corneal electrodes (Parameters: 50 Hz, 45 mA, 0.4 sec.). The total inhibition of the tonic extensor convulsion was considered as criterion of the anti-convulsive effect. The test-substance had been orally administered one hour before the electroshock. The inhibition of pentetrazole convulsion was determined on white mice by the modified method of Banziger and Hane [Banziger, R., Hane, L.D. Arch. Int. Pharmacodyn. 167, 245-249; (1967)]. I." stands for "therapeutic index."

[5] = system: white mice; experiment: inhibition of maximal electroshock (MES) (Swinyard et al.); format: in vivo; conditions: for ED50: Mus musculus, oral, 1 hour before electroshock 50 Hz, 45 mA, 0.4 sec, total inhibition of tonic extensor convulsion; for Inhibition of MES Th. I.: therapeutic index
Description: as §2

[6] = system: mice; experiment: potentiating of hexobarbital-narcosis (Kaergaard); format: in vivo; conditions: for ED50: Mus musculus, iv, 40 mg/kg hexobarbital i.v., positive: sleeping period at least 2.5 times control; for Potentiating of narcosis Th.I.: therapeutic index
Description: as §1

[7] = system: white mice; experiment: inhibition of nicotine-lethality (Stone); format: in vivo; conditions: for ED50: Mus musculus, oral, 1 hour before 1.4 mg/kg nicotine
Description: The inhibition of nicotine-lethality was determined on white mice by the method of Stone [Stone, C. A., Mecklenburg, K. L., Torchiana, M. L., Arch. Int. Pharmacodyn.

[8] = oral, 20 ml/kg, both sexes 18-24 g, 4 days observation
[9] = oral, 1 hour before i.p. 0.4 ml 0.5% acetic acid

Row | SMILES | LD50 at 96 h [1, 8] [mg/kg] | ED50 [2, 9] [mg/kg] | Analgesic effect Therap.index [2] | LD50 at 96 h ([1]; po) [mg/kg] | ED50 [3] [mg/kg] | Inhibition of motility Th.I. [3] | ED50 [4] [mg/kg] | Inhibition of pentetrazole convulsion Th. I. [4] | ED50 [5] [mg/kg] | Inhibition of MES Th. I. [5] | ED50 [6] [mg/kg] | Potentiating of narcosis Th.I. [6] | ED50 [7] [mg/kg] | Inhibition of nicotine-lethality Therapeutic index [7] | ED50 ([2]; po) [mg/kg]
1 | CC1(C)C2CCC1(C)C(Cc1ccccc1)(OCCCN1CCN(Cc3ccccc3)CC1)C2 (racemic) [Example 4] | 2000 | 200 | 10.0 |  |  |  |  |  |  |  |  |  |  |  | 
2 | CC(COC1(c2ccc(Cl)cc2)CC2CCC1(C)C2(C)C)CN(C)C (single isomer, unassigned; (+)) [Example 13, (+)-2-[(3'-dimethylamino-2'-methyl)-propoxy]-2-(p-chloro-phenyl)-1,7,7-trimethyl-bicyclo(2,2,1)heptane] |  | 200 | 10.0 | 2000 | 170 | 11.8 | 140 | 14.3 | 140 | 14.3 |  |  |  |  | 
3 | CCN(CC)CCCOC1(c2cccs2)CC2CCC1(C)C2(C)C (racemic) [Example 19, (±)-2-(3'-diethylaminopropoxy)-2-(2"-thienyl)-1,7,7-trimethyl-bicyclo(2,2,1)heptane] |  | 120 | 8.3 | 1000 |  |  |  |  |  |  | 50 | 20.0 |  |  | 
4 | CN(C)CCCOC1(c2cccs2)CC2CCC1(C)C2(C)C (racemic) [Example 18, (±)-2-(3'-dimethylaminopropoxy)-2-(2"-thienyl)-1,7,7-trimethyl-bicyclo(2,2,1)heptane] |  | 140 | 10.0 | 1400 |  |  |  |  |  |  |  |  |  |  | 
5 | CN(C)CCCOC1(Cc2ccc(Cl)cc2)CC2CCC1(C)C2(C)C (racemic) [Example 11, (±)-2-(p-chloro-benzyl)-2-(3'-dimethylaminopropoxy)-1,7,7-trimethyl-bicyclo(2,2,1)heptane] | 1500 | 75 | 20.0 |  | 130 | 11.5 |  |  |  |  | 130 | 11.5 |  |  | 
6 | CCN(CC)CCOC1(Cc2ccc(Cl)cc2)CC2CCC1(C)C2(C)C (racemic) [Example 12] | 2000 | 100 | 20.0 |  |  |  | 110 | 18.2 | 72 | 27.7 | 200 | 10.0 |  |  | 
7 | OC(CCN1CCCCC1)(c1ccccc1)C1CCCCC1 (stereo not drawn) [Trihexyphenidyl, α-Cyclohexyl-α-phenyl-1-piperidine-propanol, reference compound] |  |  |  |  |  |  |  |  |  |  |  |  | 40 | 9.13 | 
8 | CC(=O)Nc1ccc(O)cc1 [Paracetamole, N-(4-Hydroxyphenyl)-acetamide, reference compound] |  | 180 |  |  |  |  |  |  |  |  |  |  |  |  | 
9 | COc1ccc(C2(OCCCN(C)C)CC3CCC2(C)C3(C)C)cc1 (racemic) [Example 22, (±)-2-(p-methoxyphenyl)-2-(3'-dimethylaminopropoxy)-1,7,7-trimethyl-bicyclo(2,2,1)heptane] | 1000 | 72 | 13.8 |  | 100 | 10.0 | 96 | 10.4 |  |  | 80 | 12.5 |  |  | 
10 | CN1C(=O)OC(C)(C)C1=O [Trimethadion, 3,5,5-Trimethyl-2,4-oxazolidinedione, reference compound] |  |  |  |  |  |  | 400 | 5.3 | 4.9 | 4.3 |  |  |  |  | 
11 | CC(C)N(CCOC1(Cc2ccccc2)CC2CCC1(C)C2(C)C)C(C)C (racemic) [Example 3, (±)-2-benzyl-2-(2'-diisopropylaminoethoxy)-1,7,7-trimethyl-bicyclo(2,2,1) heptane] | 1250 | 120 | 10.4 |  |  |  |  |  |  |  | 120 | 10.4 |  |  | 
12 | CCN(CC)CCCOC1(Cc2ccccc2)CC2CCC1(C)C2(C)C (racemic) [Example 6, (±)-2-benzyl-2-(3'-diethylaminopropoxy)-1,7,7-trimethyl-bicyclo(2,2,1)heptane] | 2000 | 50 | 40.0 |  | 100 | 20.0 | 54 | 37.0 | 120 | 16.7 | 80 | 25.0 |  |  | 
13 | CC(C)N(CCCOC1(Cc2ccccc2)CC2CCC1(C)C2(C)C)C(C)C (racemic) [Example 5, (±)-2-benzyl-2-(3'-diisopropylaminopropoxy)-1,7,7-trimethyl-bicyclo(2,2,1)heptane] | 2000 | 100 | 20.0 |  | 190 | 10.5 | 140 | 14.3 | 380 | 5.3 | 120 | 16.7 |  |  | 
14 | CN(C)CCOC1(c2ccccc2)CC2CCC1(C)C2(C)C (racemic) [Example 15, (±)-2-(2'-dimethylaminoethoxy)-2-phenyl-1,7,7-trimethyl-bicyclo(2,2,1)heptane] | 900 |  | 39.0 |  |  |  |  |  |  |  | 40 | 22.5 | 30 | 30.0 | 23
15 | CCN(CC)CCCOC1(c2ccccc2)CC2CCC1(C)C2(C)C (racemic) [Example 16, (±)-2-(3-diethylaminopropoxy)-2-phenyl-1,7,7-trimethyl-bicyclo(2,2,1)heptane] | 700 | 70 | 10.0 |  |  |  | 60 | 11.7 | 30 | 23.3 | 20 | 35.0 |  |  | 
16 | CN(C)CCCOC1(c2ccccc2)CC2CCC1(C)C2(C)C (racemic) [Example 14, (±)-2-(3'-dimethylaminopropoxy)-2-phenyl-1,7,7-trimethyl-bicyclo(2,2,1)heptane] | 1000 | 50 | 20.0 |  | 38 | 26.3 |  |  |  |  | 64 | 15.6 |  |  | 
17 | CCN(CC)CCOC1(c2cccs2)CC2CCC1(C)C2(C)C (racemic) [Example 17, (±)-2-(2'-diethylaminoethoxy)-2-(2"-thienyl)-1,7,7-trimethyl-bicyclo(2,2,1)heptane] | 980 |  | 19.6 |  |  |  | 60 | 16.3 |  |  |  |  | 50 |  | 50
